Experimental data as given in patent US20140120060A1, “TREATMENT OF RHEUMATOID ARTHRITIS AND ASTHMA USING PI3 KINASE INHIBITORS” (INFINITY PHARMACEUTICALS, INC., priority 2012, published 2014).

System: B cell
Test: B cell proliferation
Format: cell-based

| SMILES | EC50 [nM] |
| --- | --- |
| Cc1cccc2cc(Cn3cnc4c(N)ncnc43)n(-c3ccccc3F)c(=O)c12 [Compound 1] | < 10000 |
| Cc1cccc2cc(Cn3nc(I)c4c(N)ncnc43)n(-c3ccccc3F)c(=O)c12 [Compound 2] | < 10000 |
| Cc1cccc2cc(Cn3nc(-c4cc(O)cc(F)c4)c4c(N)ncnc43)n(-c3ccccc3F)c(=O)c12 [Compound 3] | < 100 |
| Cc1cccc2cc(Cn3nc(C#CC4CC4)c4c(N)ncnc43)n(-c3ccccc3F)c(=O)c12 [Compound 4] | < 1000 |
| Cc1ccccc1-n1c(Cn2cnc3c(N)ncnc32)cc2cccc(C)c2c1=O [Compound 5] | < 10000 |
| Cc1cccc2cc(Cn3nc(C#CCO)c4c(N)ncnc43)n(-c3ccccc3F)c(=O)c12 [Compound 8] | < 1000 |
| Cc1cccc2cc(Cn3nc(-c4ccc(F)c(O)c4)c4c(N)ncnc43)n(-c3ccccc3F)c(=O)c12 [Compound 9] | < 1000 |
| Cc1cccc2cc(Cn3nc(-c4cccc(O)c4)c4c(N)ncnc43)n(-c3ccccc3F)c(=O)c12 [Compound 10] | < 1000 |
| Cc1ccccc1-n1c(Cn2nc(C#CCO)c3c(N)ncnc32)cc2cccc(C)c2c1=O [Compound 11] | < 1000 |
| Cc1ccccc1-n1c(Cn2nc(-c3ccc(F)c(O)c3)c3c(N)ncnc32)cc2cccc(C)c2c1=O [Compound 12] | < 100 |
| Cc1ccccc1-n1c(Cn2nc(-c3cccc(O)c3)c3c(N)ncnc32)cc2cccc(C)c2c1=O [Compound 13] | < 100 |
| Cc1ccccc1-n1c(Cn2nc(C#CC3CC3)c3c(N)ncnc32)cc2cccc(C)c2c1=O [Compound 14] | < 1000 |
| Cc1cccnc1-n1c(Cn2nc(I)c3c(N)ncnc32)cc2cccc(C)c2c1=O [Compound 15] | < 1000 |
| Cc1cccnc1-n1c(Cn2nc(-c3cc(O)cc(F)c3)c3c(N)ncnc32)cc2cccc(C)c2c1=O [Compound 16] | < 100 |
| Cc1cccnc1-n1c(Cn2nc(Br)c3c(N)ncnc32)cc2cccc(C)c2c1=O [Compound 17] | < 100 |
| Cc1cccnc1-n1c(Cn2nc(Cl)c3c(N)ncnc32)cc2cccc(C)c2c1=O [Compound 18] | < 1000 |
| Cc1ccccc1-n1c(Cn2nc(Br)c3c(N)ncnc32)cc2cccc(C)c2c1=O [Compound 19] | < 1000 |
| Cc1ccccc1-n1c(Cn2nc(Cl)c3c(N)ncnc32)cc2cccc(C)c2c1=O [Compound 20] | < 1000 |
| COc1cc(-c2nn(Cc3cc4cccc(C)c4c(=O)n3-c3ccccc3C)c3ncnc(N)c23)ccc1Cl [Compound 21] | < 1000 |
| COc1cc(-c2nn(Cc3cc4cccc(C)c4c(=O)n3-c3ccccc3F)c3ncnc(N)c23)ccc1Cl [Compound 22] | < 10000 |
| Cc1ccccc1-n1c(Cn2nc(-c3ccc(Cl)c(O)c3)c3c(N)ncnc32)cc2cccc(C)c2c1=O [Compound 23] | < 100 |
| Cc1cccc2cc(Cn3nc(-c4ccc(Cl)c(O)c4)c4c(N)ncnc43)n(-c3ccccc3F)c(=O)c12 [Compound 24] | < 1000 |
| Cc1ccccc1-n1c(Cn2nc(-c3ccc(O)c(Cl)c3)c3c(N)ncnc32)cc2cccc(C)c2c1=O [Compound 25] | < 1000 |
| Cc1cccc2cc(Cn3nc(-c4ccc(O)c(Cl)c4)c4c(N)ncnc43)n(-c3ccccc3F)c(=O)c12 [Compound 26] | < 10000 |
| Cc1ccccc1-n1c(Cn2nc(-c3ccc(F)cc3)c3c(N)ncnc32)cc2cccc(C)c2c1=O [Compound 27] | < 10000 |
| Cc1cccc2cc(Cn3nc(C#C[C@@H](C)O)c4c(N)ncnc43)n(-c3ccccc3F)c(=O)c12 [Compound 28] | < 1000 |
| Cc1cccc2cc(Cn3nc(-c4ccc(O)c(F)c4)c4c(N)ncnc43)n(-c3ccccc3F)c(=O)c12 [Compound 29] | < 1000 |

| SMILES | EC50 [nM] |
| --- | --- |
| Cc1ccccc1-n1c(Cn2nc(-c3ccc(O)c(F)c3)c3c(N)ncnc32)cc2cccc(C)c2c1=O [Compound 30] | < 1000 |
| Cc1ccccc1-n1c(Cn2nc(I)c3c(N)ncnc32)cc2ccccc2c1=O [Compound 31] | < 1000 |
| Cc1ccccc1-n1c(Cn2nc(C#C[C@@H](C)O)c3c(N)ncnc32)cc2ccccc2c1=O [Compound 32] | < 1000 |
| Cc1ccccc1-n1c(Cn2nc(-c3cc(O)cc(F)c3)c3c(N)ncnc32)cc2ccccc2c1=O [Compound 33] | < 100 |
| Cc1cccc2cc(Cn3nc(Cl)c4c(N)ncnc43)n(-c3ccccc3F)c(=O)c12 [Compound 34] | < 1000 |
| Cc1cccc2cc(Cn3nc(Br)c4c(N)ncnc43)n(-c3ccccc3F)c(=O)c12 [Compound 35] | < 1000 |
| Cc1ccccc1-n1c(Cn2nc(-c3ccc(O)cc3)c3c(N)ncnc32)cc2cccc(C)c2c1=O [Compound 36] | < 1000 |
| Cc1ccccc1-n1c(Cn2nc(C#C[C@@H](C)O)c3c(N)ncnc32)cc2cccc(C)c2c1=O [Compound 37] | < 100 |
| Cc1cccc2cc(Cn3nc(-c4cccc(Cl)c4)c4c(N)ncnc43)n(-c3ccccc3F)c(=O)c12 [Compound 38] | > 10000 |
| Cc1ccccc1-n1c(Cn2nc(-c3cccc(Cl)c3)c3c(N)ncnc32)cc2cccc(C)c2c1=O [Compound 39] | < 10000 |
| Cc1cccc2cc(Cn3nc(-c4cccc(F)c4)c4c(N)ncnc43)n(-c3ccccc3F)c(=O)c12 [Compound 40] | < 10000 |
| Cc1ccccc1-n1c(Cn2nc(-c3cccc(F)c3)c3c(N)ncnc32)cc2cccc(C)c2c1=O [Compound 41] | < 1000 |
| Cc1ccccc1-n1c(Cn2nc(I)c3c(N)ncnc32)cc2cccc(F)c2c1=O [Compound 42] | < 1000 |
| Cc1ccccc1-n1c(Cn2nc(C#C[C@@H](C)O)c3c(N)ncnc32)cc2cccc(F)c2c1=O [Compound 43] | < 10000 |
| COc1ccc(-c2nn(Cc3cc4cccc(C)c4c(=O)n3-c3ccccc3C)c3ncnc(N)c23)cc1OC [Compound 44] | < 100 |
| COc1ccc(-c2nn(Cc3cc4cccc(C)c4c(=O)n3-c3ccccc3C)c3ncnc(N)c23)cc1 [Compound 45] | < 1000 |
| Cc1cccc2cc(Cn3nc(-c4ccc(O)cc4)c4c(N)ncnc43)n(-c3ccccc3F)c(=O)c12 [Compound 46] | < 1000 |
| COc1ccc(-c2nn(Cc3cc4cccc(C)c4c(=O)n3-c3ccccc3F)c3ncnc(N)c23)cc1OC [Compound 47] | < 1000 |
| Cc1ccccc1-n1c(Cn2nc(-c3cnc4[nH]ccc4c3)c3c(N)ncnc32)cc2cccc(C)c2c1=O [Compound 48] | < 100 |
| Cc1ccccc1-n1c(Cn2nc(-c3ccc(Cl)cc3)c3c(N)ncnc32)cc2cccc(C)c2c1=O [Compound 49] | < 10000 |
| Cc1ccccc1-n1c(Cn2nc(-c3ccc4cc[nH]c4c3)c3c(N)ncnc32)cc2cccc(C)c2c1=O [Compound 50] | < 1000 |
| Cc1ccccc1-n1c(Cn2nc(-c3cccc(O)c3)c3c(N)ncnc32)cc2ccccc2c1=O [Compound 51] | < 1000 |
| CC(=O)Nc1nc2ccc(-c3nn(Cc4cc5cccc(C)c5c(=O)n4-c4ccccc4C)c4ncnc(N)c34)cc2s1 [Compound 53] | < 100 |
| Cc1ccccc1-n1c(Cn2nc(-c3ccc(F)c(O)c3)c3c(N)ncnc32)cc2ccccc2c1=O [Compound 54] | < 100 |
| Cc1ccccc1-n1c(Cn2nc(-c3cc(O)cc(F)c3)c3c(N)ncnc32)cc2cccc(F)c2c1=O [Compound 55] | < 100 |
| Cc1cccc2cc(Cn3nc(I)c4c(N)ncnc43)n(C3CCCC3)c(=O)c12 [Compound 57] | < 10000 |
| Cc1cccc2cc(Cn3nc(C#C[C@@H](C)O)c4c(N)ncnc43)n(C(C)C)c(=O)c12 [Compound 61] | < 1000 |
